Consider six compounds from patent US4935362A, “BMY-28121, a new antitumor antibiotic” (Bristol-Myers Company, priority 1987, dated 1990).

In brackets after ≈: the same amount, converted by molar mass. Read-outs that look alike come from different tables or passages of the source.

Data set [1] deals with Micrococcus luteus PCI-1001. Briefly: microbe, parasite or virus in culture. The format is cell-based.
In data set [2] the test system is Bacillus subtilis PCI-219. Briefly: microbe, parasite or virus in culture. The data set is classed as cell-based.
Data set [3] concerns Bacteriodes fragilis A22534. The data set is classed as cell-based.
For data set [4], the system named is Bacteriodes fragilis A22695. The format is cell-based.
Data set [5] relates to Bacteriodes fragilis A22533. The data set is classed as cell-based.
The test system of data set [6] is Bacteriodes fragilis CUH-108. The format is cell-based.
Data set [7] concerns Staphylococcus aureus 52-34. The data set is classed as cell-based. As to conditions: 5234.
The test system of data set [8] is Staphylococcus aureus A20239. The data set is classed as cell-based.
Data set [9] deals with Staphylococcus aureus BX-1633. The data set is classed as cell-based.
In data set [10] the test system is Staphylococcus aureus A15097. The data set is classed as cell-based.
In data set [11] the test system is Staphylococcus epidermidis D153. The format is cell-based.
Data set [12] has as its system Strpetococcus faecalis A9612. The data set is classed as cell-based.
The test system of another data set is Escherichia coli NIHJ. The data set is classed as cell-based.
Data set [13] relates to Klebsiella pnuemonia D-11. The data set is classed as cell-based. The following applies: D11.
Another data set has as its system Proteus mirabilis A9554. The format is cell-based.
A further data set has as its system Proteus vulgaris A9436. The format is cell-based.
Data set [14] deals with Morganella morganii A9553. The format is cell-based.
For data set [15], the system named is Serratia marcescens A20222. Briefly: microbe, parasite or virus in culture. The data set is classed as cell-based.
In data set [16] the test system is Pseudomonas aeruginosa A9930. The data set is classed as cell-based.
Data set [17] has as its system Enterobacter cloacae A9659. The data set can be described thus: microbe, parasite or virus in culture. The format is cell-based.
Data set [18] deals with Propionibacterium acnes A21933. The data set is classed as cell-based. The following applies: Cutibacterium acnes.
Data set [19] concerns Peptostreptococcus anaerobius A21905. The format is cell-based.
The subject of data set [20] is Bacteriodes fragilis A22053. The data set is classed as cell-based.
Data set [21] relates to Bacteriodes fragilis A22021. The data set is classed as cell-based.
The test system of data set [22] is aerobic gram-negative organisms. The format is cell-based.
A further data set concerns P388 leukemia. The format is in vivo, mice (male BDF1 strain). The following applies: for T/C % of MST: ip, once daily for 9 days.
Data set [23] concerns various gram-positive and anaerobic bacteria. The format is cell-based.
Data set [24] has as its system Staphylococcus aureus D136. The format is cell-based.
Data set [25] relates to Clostridium perfringens A22787. Briefly: microbe, parasite or virus in culture. The data set is classed as cell-based.
Data set [26] has as its system aerobic gram-positive bacteria. The format is cell-based.
Another data set relates to anaerobic bacteria. The format is cell-based.
Another data set relates to L1210 leukemia. Briefly: Antitumor activity in mice, L1210 leukemia. The data set is classed as in vivo, mice (male BDF1 strain). As to conditions: ip; for T/C % of MST: once daily for 9 days.
A further data set concerns B16 melanoma. The data set can be described thus: Antitumor activity in mice, B16 melanoma. The data set is classed as in vivo, mice (male BDF1 strain). As to conditions: ip; for T/C % of MST: once daily for 9 days.
Data set [27] has as its system Clostridium difficile A21675. The format is cell-based. As to conditions: Clostridioides difficile, GAM agar, 10^7-10^8 inoculum.
Data set [28] deals with Bacteriodes fragilis A22693. The format is cell-based. As to conditions: GAM agar, 10^7-10^8 inoculum.
Data set [29] has as its system Staphylococcus epidermidis A22152. The data set is classed as cell-based.
[30] abbreviates: Bacteriodes fragilis A22695, GAM agar, 10^7-10^8 inoculum, read-out: MIC.
Setting [31] is: Bacteriodes fragilis A22533, GAM agar, 10^7-10^8 inoculum, read-out: MIC.
[32] abbreviates: Bacteriodes fragilis CUH-108, GAM agar, 10^7-10^8 inoculum, read-out: MIC.

On to `CC1(C)S[C@@H]2[C@H](NC(=O)[C@H](N)c3ccccc3)C(=O)N2[C@H]1C(=O)O` [Ampicillin, reference compound], for which the MIC in data set [1] (PCI1001, read-out: MIC) is under 0.0063 µg/mL; in [2] (PCI219) it was 0.025 µg/mL (≈ 0.0715 µM); in data set [3] (Bacteriodes fragilis A22534, GAM agar, 10^7-10^8 inoculum, read-out: MIC), over 100 µg/mL; in data set [4] (setting [30]), over 100 µg/mL; in data set [5] (setting [31]) it was over 100 µg/mL; in [6] (setting [32]), 50 µg/mL (≈ 143 µM).
With `COc1cccc2c1N[C@H](O)[C@@H]1CC(/C=C/C(=O)N(C)C)=CN1C2=O` [BMY-28121 A], the MIC worked out at 3.1 µg/mL (≈ 9.03 µM) in [7]; 12.5 µg/mL (≈ 36.4 µM) in data set [8]; 12.5 µg/mL (≈ 36.4 µM) in data set [9] (BX1633); 12.5 µg/mL (≈ 36.4 µM) in data set [10]; 3.1 µg/mL (≈ 9.03 µM) in data set [11]; 12.5 µg/mL (≈ 36.4 µM) in data set [12]. For the same compound, the MIC in data set [1] (PCI1001) was 12.5 µg/mL (≈ 36.4 µM); in the data set on Escherichia coli NIHJ, 50 µg/mL (≈ 146 µM); in data set [13], over 50 µg/mL; in the data set on Proteus mirabilis A9554, over 50 µg/mL; in the data set on Proteus vulgaris A9436 it was over 50 µg/mL; in data set [14], over 50 µg/mL. Also, the MIC in data set [15] was over 50 µg/mL; in [16] it was over 50 µg/mL; in data set [17] it was over 50 µg/mL; in data set [18] (read-out: MIC), 0.4 µg/mL (≈ 1.16 µM); in [19] (read-out: MIC), 0.4 µg/mL (≈ 1.16 µM); in data set [20] (read-out: MIC), 0.8 µg/mL (≈ 2.33 µM). The MIC in data set [21] (read-out: MIC) and in data set [6] (read-out: MIC) was 0.8 µg/mL (≈ 2.33 µM) each time. Further, the “in vitro activity against aerobic gram-negative organisms” value in data set [22] is recorded as “did not show any in vitro activity”. The “antitumor activity against experimental tumors in mice” value in the data set on P388 leukemia (mouse, in vivo) is on record as “marked antitumor activity”. For the same compound, in the data set on P388 leukemia (mouse, in vivo), the “times more active than mitomycin C in terms of minimum effective dose” value is listed as “approximately 4 times”. Besides, in [23], the antibacterial activity entry is given as “possess antibacterial activity”.
Regarding `COc1cccc2c1N[C@H](OC)[C@@H]1CC(/C=C/C(=O)N(C)C)=CN1C2=O` [BMY-28121 B, 1,10,11,11a-tetrahydro-9,11-dimethoxy-5H-pyrrolo-[2,1-c][1,4]benzodiazepine-5-one-2-N,N-dimethylacrylamide], the MIC was found to be 6.3 µg/mL (≈ 17.6 µM) in [24]; 6.3 µg/mL (≈ 17.6 µM) in data set [8]; 6.3 µg/mL (≈ 17.6 µM) in data set [9] (BX1633); 6.3 µg/mL (≈ 17.6 µM) in data set [10]; 6.3 µg/mL (≈ 17.6 µM) in [12]; 12.5 µg/mL (≈ 35 µM) in data set [1] (PCI1001). Also, the MIC (with Escherichia coli NIHJ; in [13]; in the data set on Proteus mirabilis A9554; against Proteus vulgaris A9436; in data set [14]; in [15]) was over 50 µg/mL each time. In addition, the MIC in [16] is over 50 µg/mL; in [17] it was over 50 µg/mL; in [25], 0.4 µg/mL (≈ 1.12 µM); in data set [18], 0.4 µg/mL (≈ 1.12 µM); in data set [19] it was 0.2 µg/mL (≈ 0.56 µM); in data set [20], 0.4 µg/mL (≈ 1.12 µM). Further, the MIC came out at 0.2 µg/mL (≈ 0.56 µM) in data set [21]; 0.4 µg/mL (≈ 1.12 µM) in data set [3]; 0.4 µg/mL (≈ 1.12 µM) in [4]; 0.8 µg/mL (≈ 2.24 µM) in data set [5]; 0.4 µg/mL (≈ 1.12 µM) in data set [6]. Also, the “susceptibility of aerobic gram-positive bacteria” value in data set [26] is on record as “moderately susceptible”. Further, in [22], the “in vitro activity against aerobic gram-negative organisms” value was “did not show any in vitro activity”. Also, the “inhibition of anaerobic bacteria” value with anaerobic bacteria was “inhibited all of the gram-positive and negative organisms”. Moreover, the “T/C % of MST” value with P388 leukemia (0.008 mg/kg/day, P388 leukemia) was found to be 120%; in the data set on P388 leukemia (0.13 mg/kg/day, P388 leukemia) it was 200%; in the data set with P388 leukemia (0.25 mg/kg/day, P388 leukemia), 210%; in the data set with L1210 leukemia (0.13 mg/kg/day), 129%; with L1210 leukemia (0.25 mg/kg/day), 129%; with B16 melanoma (0.13 mg/kg/day), 113%. For the same compound, in the data set on B16 melanoma (0.25 mg/kg/day), the “T/C % of MST” value is given as 131%. The “times more active than mitomycin C in terms of minimum effective dose” value in the data set with P388 leukemia (P388 leukemia, vs mitomycin C) is reported as “approximately 4 times”. In addition, the “antitumor activity against experimental tumors in mice” value in the data set on P388 leukemia (eg. P388 leukemia in mice) is “marked antitumor activity”. The “therapeutic activity against L1210 leukemia” value in the data set on L1210 leukemia is reported as “potent therapeutic activity”. In the data set on B16 melanoma, the “activity against B16 melanoma” value is “marginally active”. Also, the antibacterial activity result in [23] is listed as “possess antibacterial activity”. The solubility result is, setting by setting: (in ethyl acetate and ethyl ether) “slightly soluble”; (in methanol, ethanol, chloroform, pyridine, and dimethylformamide) “readily soluble”; (in n-hexane and water) “practically insoluble”.
Turning to `CCC[C@@H]1C[C@@H](C(=O)N[C@@H]([C@H]2O[C@H](SC)[C@H](O)[C@@H](O)[C@H]2O)[C@H](C)Cl)N(C)C1` [Clindamycin], the MIC in [27] stood at 50 µg/mL (≈ 118 µM); in [28], 0.1 µg/mL (≈ 0.235 µM); in data set [20] (Bacteriodes fragilis A22053, GAM agar, 10^7-10^8 inoculum, read-out: MIC), 0.2 µg/mL (≈ 0.471 µM); in data set [21] (Bacteriodes fragilis A22021, GAM agar, 10^7-10^8 inoculum, read-out: MIC), 0.1 µg/mL (≈ 0.235 µM); in [4] (setting [30]), 0.1 µg/mL (≈ 0.235 µM); in data set [5] (setting [31]), 0.1 µg/mL (≈ 0.235 µM). Besides, the MIC in [6] (setting [32]) turned out to be 100 µg/mL (≈ 235 µM).
Take `NC[C@H]1O[C@H](O[C@H]2[C@H](O)[C@@H](O[C@H]3O[C@H](CO)[C@@H](O)[C@H](N)[C@H]3O)[C@H](N)C[C@@H]2N)[C@H](O)[C@@H](O)[C@@H]1O` [Kanamycin, reference compound]: the MIC in [24] (read-out: MIC) was 0.8 µg/mL (≈ 1.65 µM); in [7] it was 0.8 µg/mL (≈ 1.65 µM); in data set [8] it was 100 µg/mL (≈ 206 µM); in [9] (BX1633, read-out: MIC), 0.8 µg/mL (≈ 1.65 µM); in [10] (read-out: MIC), 0.8 µg/mL (≈ 1.65 µM); in [11] it was 0.8 µg/mL (≈ 1.65 µM). Moreover, the MIC in data set [29] turned out to be 25 µg/mL (≈ 51.6 µM); in data set [12], 25 µg/mL (≈ 51.6 µM); in [1] (PCI1001), 6.3 µg/mL (≈ 13 µM); in [2] (PCI219, read-out: MIC), 0.2 µg/mL (≈ 0.413 µM); in the data set with Escherichia coli NIHJ (read-out: MIC), 1.6 µg/mL (≈ 3.3 µM); in data set [13] it was 0.4 µg/mL (≈ 0.826 µM). Further, the MIC against Proteus mirabilis A9554 came out at 6.3 µg/mL (≈ 13 µM); in the data set on Proteus vulgaris A9436 (read-out: MIC) it was 0.8 µg/mL (≈ 1.65 µM); in data set [14] it was 6.3 µg/mL (≈ 13 µM); in [15] (read-out: MIC) it was 3.1 µg/mL (≈ 6.4 µM); in data set [16], 6.3 µg/mL (≈ 13 µM); in [17] (read-out: MIC), 3.1 µg/mL (≈ 6.4 µM).
As for `CO[C@@]12[C@H](COC(N)=O)C3=C(C(=O)C(C)=C(N)C3=O)N1C[C@@H]1N[C@@H]12` [Mitomycin C, reference compound], the “T/C % of MST” value was 150% in the data set with P388 leukemia (0.13 mg/kg/day, P388 leukemia); 180% with P388 leukemia (0.25 mg/kg/day, P388 leukemia); 240% with P388 leukemia (0.5 mg/kg/day, P388 leukemia); 450% with P388 leukemia (1 mg/kg/day, P388 leukemia); 129% in the data set with L1210 leukemia (0.13 mg/kg/day); 129% with L1210 leukemia (0.25 mg/kg/day). The “T/C % of MST” value in the data set with L1210 leukemia (0.5 mg/kg/day) was 141%; in the data set with L1210 leukemia (1 mg/kg/day), 141%; in the data set on B16 melanoma (0.5 mg/kg/day), 164%; in the data set with B16 melanoma (1 mg/kg/day), 191%.
